Source: patent US20180015088A1, “SITE SPECIFIC DOSING OF A BTK INHIBITOR” (Principia Biopharma Inc., priority 2014, published 2018)
Like-named read-outs stand apart in the source and are kept apart here.

Columns and labels:
[1] = test system: intestinal tissue (stomach, duodenum, jejunum, ileum, colon); assay: In vitro permeation in Ussing chambers through different intestinal regions of rat; assay type: in vitro ADME, Sprague-Drawley rats; details: 100 uM, mucosal to serosal, distal regions compared to stomach or duodenum, FIG. 7
Procedure: Reagents: 10× Krebs-Ringer buffer (KRB) comprised of 1.26M NaCl (Promega, Madison, Wis.), 25mM KCl, 250 mM NaHCO3, 12 mM NaH2PO4, 12 mM MgCl2, 25 mM CaCl2 and 18 g/L D-Glucose (all from Sigma Aldrich, St. Louis, Mo.) prepared and stored individually to prevent crystallization. Dilute to 1× working concentration prior to use and pH adjusted with either carbogen perfusion for 20 mins to pH 7.4 (oxygenated KRB) or 1M HCl (Alfar Aesar, Ward Hill, Mass.) to pH 3.5, 6.5 or 7.4. 0.1% Phenol red, Antipyrine and Atenolol were purchased from Sigma Aldrich, St. Louis, Mo.
Harvest and preparation of intestinal tissue: 4 to 9 month old adult female virgin Sprague-Drawley rats (Harlan Laboratories, Livermore, Calif.) were acclimated in-house for a minimum of 3 days prior to experimentation. Adolescent and geriatric animals should be avoided to prevent age-related differences in gastro-intestinal morphology and function. Animals were housed under IACUC-approved husbandry protocols including 12-hour light and 12-hour dark cycles, and allowed standard chow and water ad libitum. Tissue harvest should be performed one animal at a time to maintain tissue viability. […]

[2] = Solubility of Compound (I) at low pH; assay type: physicochemical
[3] = Site specific gastrointestinal dosing (oral gavage, intraduodenal, intrajejunal) in rats, plasma AUC; assay type: in vivo, Wister-Hans rats; details: for AUC: Wister-Hans, rat, plasma
Procedure: Compound (I) was dosed in 10 mg/mL aqueous citrate solution at 20 mg/kg to Wister-Hans rats. Free base of Compound (I) was dissolved in aqueous solution of citric acid (containing 0.5 equivalents of anhydrous citiric acid) . The experiment was repeated 3 times each with 2 separate arms, and one oral (PO) gavage arm was included in each study. Intra-jejunal (IJ) and intra-duodenal (ID) dosing was done in cannulated rats. In the first study, there was about 40-fold increase in the AUC for the IJ-dosed group compared to the PO group, and the major metabolite, present in the PO arm was reduced by 20 fold in the IJ-group.

[4] = Solubility of the salt in water at ambient temperature; assay type: physicochemical
Procedure: To the solution of (R)-2-[3-[4-amino-3-(2-fluoro-4-phenoxy-phenyl)pyrazolo[3,4-d]pyrimidin-1-yl]piperidine-1-carbonyl]-4-methyl-4-[4-(oxetan-3-yl)piperazin-1-yl]pent-2-enenitrile (having about 9/1 E/Z ratio) (4.2 g) in EtOAc (60 mL, 15 vol) was added sulfuric acid (0.31 g, 0.17 mL, 0.5 eq) in EtOAc (20 mL, 5 vol) at ambient temperature. The suspension was stirred at ambient temperature for ˜2 hr and then 40° C. for 4 hr and then at ambient temperature for at least 1 hr. After filtration and drying at ambient temperature under vacuum, 1.5 g of white powder was obtained. Solubility of the hemi-sulfate at ambient temperature was >100 mg/mL in water.

permeability (Papp) by region of the GI tract [1]	solubility at low pH [2]	increase in AUC, ID compared to oral gavage ([3]; ID vs PO)	metabolic stability by site of administration ([3]; IJ dosing compared to oral gavage)	AUC ([3]; 20 mg/kg, intraduodenum cannula, 20 mg/kg, aqueous citrate solution, read-out: AUC, intraduodenal (ID) dosing) [ng·h/mL]	AUC ([3]; other: intrajejunal, 20 mg/kg, intrajejunum cannula, 20 mg/kg, aqueous citrate solution, read-out: AUC, intrajejunal (IJ) dosing) [ng·h/mL]	AUC ([3]; po, 20 mg/kg, oral (PO) gavage, 20 mg/kg, 10 mg/mL aqueous citrate solution, read-out: AUC, oral gavage) [ng·h/mL]	AUC, intrajejunal (IJ) dosing ([3]; intrajejunum cannula, 20 mg/kg, aqueous citrate solution)	AUC, oral gavage ([3]; oral (PO) gavage, 20 mg/kg, 10 mg/mL aqueous citrate solution) [ng·h/mL]	solubility [4] [mg/mL]	SMILES
statistically increased permeabilities	greater than 10 % (w/v)	approximately 2 fold	more metabolically stable	1780	14400	668 to 1640	26,800 ng*hr/ml	994	–	CC(C)(C=C(C#N)C(=O)N1CCCC(n2nc(-c3ccc(Oc4ccccc4)cc3F)c3c(N)ncnc32)C1)N1CCN(C2COC2)CC1 [Compound (I), (R)-2-[3-[4-amino-3-(2-fluoro-4-phenoxy-phenyl)pyrazolo[3,4-d]pyrimidin-1-yl]piperidine-1-carbonyl]-4-methyl-4-[4-(oxetan-3-yl)piperazin-1-yl]pent-2-enenitrile]
–	–	–	–	–	–	–	–	–	> 100	CC(C)(C=C(C#N)C(=O)N1CCC[C@@H](n2nc(-c3ccc(Oc4ccccc4)cc3F)c3c(N)ncnc32)C1)N1CCN(C2COC2)CC1 [hemi-sulfate, (R)-2-[3-[4-amino-3-(2-fluoro-4-phenoxy-phenyl)pyrazolo[3,4-d]pyrimidin-1-yl]piperidine-1-carbonyl]-4-methyl-4-[4-(oxetan-3-yl)piperazin-1-yl]pent-2-enenitrile]
